Values quoted from earlier work as cited in patent publication US12037433B2, “(Co)polymers of hydrophobic monomers and methods of making and use thereof” (BASF SE, priority 2018, dated 2024).

Columns and labels:
[1] = for solubility in water, measured at 20° C.: additional hydrophobic monomers

| Structure (SMILES) | Water Solubility at 20° C. [1] | Partitioning Coefficient n-octanol/water [log Kow at 25° C.] | solubility in water, measured at 20° C. [1] |
| --- | --- | --- | --- |
| C=C(C)C(=O)OCCCCCCCCCCCCCCCCC [Heptadecyl methacrylate (C17 MA), Heptadecyl methacrylate] | 50 µg/mL | 6.5 | – |
| C=C(C)C(=O)OCCCCCCCCCCCC [Lauryl Methacrylate (LMA), Lauryl Methacrylate] | 30 µg/mL | 6.45 | – |
| C=C(C)C(=O)OC1CCCCC1 [Cyclohexyl methacrylate (CHMA), Cyclohexyl methacrylate] | 100 µg/mL | 3.54 | – |
| C=C(C)C(=O)OCCCCCCCCCCCCCCCCCC [Stearyl Methacrylate (SMA), Stearyl Methacrylate] | – | 9.62 | – |
| C=CC=C [butadiene] | – | – | 0.08 g/100 g water |
| C=CC(=O)OCCCCCCCCCCCC [Lauryl Acrylate (LA), Lauryl Acrylate] | 40 µg/mL | 6.13 | – |
| C=COC(=O)C(C)(C)C [vinyl neo-pentanoate] | – | – | 0.08 g/100 g water |
| C=CC(=O)OCCCCCCCCCCCCCCCCC [Heptadecyl acrylate (C17 A), Heptadecyl acrylate] | 40 µg/mL | 9.2 | – |
| C=CC(=O)OCCCCCCCCCCCCCCCCCC [Stearyl Acrylate (SA), Stearyl Acrylate] | – | 9.28 | – |
| C=Cc1ccccc1 [styrene] | – | – | 0.03 g/100 g water |
